Data as given in patent publication US8188100B2, “Adenosine derivatives as A2A receptor agonists” (Novartis AG, priority 2006, dated 2012).

Target: adenosine A2A receptor (Homo sapiens, UniProt P29274)
Assay: adenosine A2A receptor agonist assay (method of Murphree et al.)
Format: binding
Details: method described by Murphree et al., Mol Pharmacol, Vol. 61, pp. 455-462 (2002)
Source text: Compounds of formula (I) and their pharmaceutically acceptable salts are useful as pharmaceuticals. In particular, they activate the adenosine A2A receptor, i.e., they act as A2A receptor agonists.

Sequence of adenosine A2A receptor (P29274 whole entry): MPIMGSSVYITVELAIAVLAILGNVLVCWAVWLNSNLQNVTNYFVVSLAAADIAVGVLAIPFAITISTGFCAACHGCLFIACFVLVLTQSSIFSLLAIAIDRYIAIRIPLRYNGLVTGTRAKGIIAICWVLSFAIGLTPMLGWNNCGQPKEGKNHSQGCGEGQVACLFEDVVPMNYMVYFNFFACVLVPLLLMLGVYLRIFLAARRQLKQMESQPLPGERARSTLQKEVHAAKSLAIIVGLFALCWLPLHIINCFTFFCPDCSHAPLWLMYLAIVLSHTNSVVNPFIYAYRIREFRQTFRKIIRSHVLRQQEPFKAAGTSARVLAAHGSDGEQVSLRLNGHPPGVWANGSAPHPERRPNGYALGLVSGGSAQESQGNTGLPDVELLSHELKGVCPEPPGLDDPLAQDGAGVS

SMILES: CCC(=O)N[C@H]1C[C@@H](n2cnc3c(NCC(c4ccccc4)c4ccccc4)nc(N4CC[C@@H](Nc5nc(Cl)nc6c5ncn6[C@@H]5C[C@H](NC(=O)CC)[C@@H](O)[C@H]5O)C4)nc32)[C@H](O)[C@@H]1O [Example 1, {(1S,2R,3S,4R)-4-[2-{(R)-3-[2-Chloro-9-((1R,2S,3R,4S)-2,3-dihydroxy-4-propionylamino-cyclopentyl)-9H-purin-6-ylamino]-pyrrolidin-1-yl}-6-(2,2-diphenyl-ethylamino)-purin-9-yl]-2,3-dihydroxy-cyclopentyl}-propionamide]
- Ki: 760 nM
